Experimental data from ChEMBL document CHEMBL1201862, “PubChem BioAssay data set” (2004).
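Cells were grown in 96-well plates and exposed to each compound for 48 hours at five concentrations; endpoints were interpolated linearly between bracketing concentrations, or set to the highest concentration if not reached. GI50 is the concentration that inhibits growth by half.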 Activity calls are given as the source filed them. No stated cut-off is given here; in the data, active = GI50 up to about 1.1 µM and inactive = higher.

What was measured:
Assay in all cases: DTP human tumour cell line panel, 48 h
NCI-H460 = tested on: NCI-H460
SK-OV-3 = tested on: SK-OV-3
DLD-1 = tested on: DLD-1
OVCAR-4 = tested on: OVCAR-4
HOP-62 = tested on: HOP-62
ACHN = tested on: ACHN
SR = tested on: SR
HCT-15 = tested on: HCT-15
SK-MEL-28 = tested on: SK-MEL-28
UACC-257 = tested on: UACC-257
NCI-H23 = tested on: NCI-H23
SNB-78 = tested on: SNB-78
HCT-116 = tested on: HCT-116
SK-MEL-2 = tested on: SK-MEL-2
OVCAR-3 = tested on: OVCAR-3

Compound	GI50 (NCI-H460)	GI50 (SK-OV-3)	GI50 (DLD-1)	GI50 (OVCAR-4)	GI50 (HOP-62)	GI50 (ACHN)	GI50 (SR)	GI50 (HCT-15)	GI50 (SK-MEL-28)	GI50 (UACC-257)	GI50 (NCI-H23)	GI50 (SNB-78)	GI50 (HCT-116)	GI50 (SK-MEL-2)	GI50 (OVCAR-3)
CCCCN(CCCC)CC(C(C)=O)C(c1ccccc1)c1c(O)c2ccccc2oc1=O (centres undefined)	> 100 µM (inactive)	> 100 µM (inactive)	> 100 µM (inactive)	> 100 µM (inactive)	> 100 µM (inactive)	> 100 µM (inactive)	> 100 µM (inactive)	> 100 µM	> 100 µM (inactive)	> 100 µM (inactive)	> 100 µM (inactive)	> 100 µM (inactive)	> 100 µM (inactive)	> 100 µM (inactive)	> 100 µM (inactive)
CCN(CC)C(=O)COc1ccc(Br)cc1Br	> 100 µM (inactive)	> 100 µM (inactive)	> 100 µM (inactive)	> 100 µM (inactive)	> 100 µM (inactive)	> 100 µM (inactive)	> 100 µM (inactive)	> 100 µM	> 100 µM (inactive)	> 100 µM (inactive)	82.6 µM (inactive)	> 100 µM (inactive)	> 100 µM (inactive)	> 100 µM (inactive)	> 100 µM (inactive)
CS/C(=N/C#N)NCCc1c[nH]c2ccccc12	> 100 µM (inactive)	> 100 µM (inactive)	> 100 µM (inactive)	> 100 µM (inactive)	> 100 µM (inactive)	25.1 µM (inactive)	60.3 µM (inactive)	> 100 µM	> 100 µM (inactive)	> 100 µM (inactive)	> 100 µM (inactive)	> 100 µM (inactive)	> 100 µM (inactive)	–	> 100 µM (inactive)
Cc1ccc(S(=O)(=O)SCc2ccccc2CSS(=O)(=O)c2ccc(C)cc2)cc1	42.2 µM (inactive)	> 100 µM (inactive)	15.2 µM (inactive)	18.7 µM (inactive)	> 100 µM (inactive)	29 µM (inactive)	16.1 µM (inactive)	19.5 µM	19.1 µM (inactive)	71.9 µM (inactive)	18.8 µM (inactive)	20.1 µM (inactive)	21.3 µM (inactive)	–	20.5 µM (inactive)
Nc1ncnc2c1nnn2C1C=C(CO)C(O)C1O (centres undefined)	40.8 µM (inactive)	> 100 µM (inactive)	35.2 µM (inactive)	32.4 µM (inactive)	> 92 µM (inactive)	> 53.5 µM (inactive)	–	26.6 µM	65.3 µM (inactive)	> 100 µM (inactive)	> 78.9 µM (inactive)	> 86.7 µM (inactive)	27.8 µM (inactive)	> 60 µM (inactive)	> 100 µM (inactive)
CC(=O)C1C(c2ccc(N(C)C)cc2)c2cc3c(cc2OC1(C)O)OCO3 (centres undefined)	34.4 µM (inactive)	55.3 µM (inactive)	59.3 µM (inactive)	33.7 µM (inactive)	> 100 µM (inactive)	41.2 µM (inactive)	–	41.3 µM	57.4 µM (inactive)	51.8 µM (inactive)	59 µM (inactive)	56 µM (inactive)	39.8 µM (inactive)	33.3 µM (inactive)	35 µM (inactive)
N#CCc1ccc(C(C#N)/C(CCCC(=O)Nc2cccc([N+](=O)[O-])c2)=N/NC(N)=S)cc1 (centres undefined)	> 100 µM (inactive)	> 100 µM (inactive)	87.5 µM (inactive)	> 100 µM (inactive)	> 100 µM (inactive)	> 100 µM (inactive)	> 100 µM (inactive)	> 100 µM	> 100 µM (inactive)	> 100 µM (inactive)	> 100 µM (inactive)	57.7 µM (inactive)	> 100 µM (inactive)	> 100 µM (inactive)	75.3 µM (inactive)
Cc1cc(NCCCCCCNc2cc(C)nc3ccc(Cl)cc23)c2cc(Cl)ccc2n1	14.8 µM (inactive)	> 100 µM (inactive)	16.8 µM (inactive)	20 µM (inactive)	75.5 µM (inactive)	33 µM (inactive)	2.09 µM (inactive)	18 µM	17.2 µM (inactive)	20 µM (inactive)	15 µM (inactive)	22.7 µM (inactive)	14.7 µM (inactive)	26.2 µM (inactive)	18 µM (inactive)
O=C(NC(=O)c1cn(CCN(CCO)C(=O)NCCCCCCNC(=O)N(CCO)CCn2cc(C(=O)NC(=O)OCc3ccccc3)c(=O)[nH]c2=O)c(=O)[nH]c1=O)OCc1ccccc1	> 100 µM (inactive)	> 100 µM (inactive)	> 100 µM (inactive)	> 100 µM (inactive)	> 100 µM (inactive)	> 100 µM (inactive)	–	> 100 µM	> 100 µM (inactive)	> 100 µM (inactive)	> 100 µM (inactive)	> 100 µM (inactive)	> 100 µM (inactive)	> 100 µM (inactive)	> 100 µM (inactive)
O=S(O)CCCSSc1ccccc1	78.3 µM (inactive)	99.3 µM (inactive)	41.9 µM (inactive)	98.4 µM (inactive)	57.7 µM (inactive)	48 µM (inactive)	–	35.5 µM	54.6 µM (inactive)	40.2 µM (inactive)	66.7 µM (inactive)	32.7 µM (inactive)	37.7 µM (inactive)	74.6 µM (inactive)	53.8 µM (inactive)
